Here are results for ten compounds from patent US5670509A, “Tocolytic oxytocin receptor antagonists” (priority 1995, dated 1997).

One series concerns premature labor. Conditions: compared with ritodrine; cited from earlier work.
In another series the target is T1, uterine OT receptors (Rattus norvegicus, UniProt P70536).
T1 construct: from tissue; host or cells: rat uterus (DES-treated), crude membrane preparation
T1 sequence (P70536 1-388): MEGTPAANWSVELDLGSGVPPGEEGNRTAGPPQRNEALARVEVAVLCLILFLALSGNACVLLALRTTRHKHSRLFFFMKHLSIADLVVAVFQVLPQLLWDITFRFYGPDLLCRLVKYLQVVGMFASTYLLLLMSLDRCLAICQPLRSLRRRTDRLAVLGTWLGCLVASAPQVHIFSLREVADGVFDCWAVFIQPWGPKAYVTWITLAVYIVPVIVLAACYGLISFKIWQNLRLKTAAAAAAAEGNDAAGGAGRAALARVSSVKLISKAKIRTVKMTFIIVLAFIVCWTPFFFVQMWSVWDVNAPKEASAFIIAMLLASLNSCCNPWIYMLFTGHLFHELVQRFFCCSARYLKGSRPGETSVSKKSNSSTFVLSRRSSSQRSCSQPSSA
Briefly: Radioligand binding assay: competition of [3H]oxytocin binding to a crude membrane preparation of uteri from DES-treated rats. The note with it: 1 nM [3H]OT; 60 minutes; 22° C.; pH 7.4; rat uterus membranes. The procedure: The high affinity binding of [^3 H] Oxytocin (OT)([tyrosyl, 3,5-[^3 H]OT; 30-60 Ci/mmol; New England Nuclear. Boston, Mass.) to uterine OT receptors was based on an assay (Fuchs, A-R; Fuchs, F; Soloff, MS. 1985 J. Clin. Endocrinol. Metab. 60:37) using a crude membrane preparation of uteri taken from diethylstilbestrol dipropionate (DES)-treated (0.3 mg/kg, ip; 18-24) rats. Competition studies were conducted at equilibrium (60 minutes; 22° C.) using 1 nM[^3 H]OT in the following assay buffer: 50 mM Tris-HCl, 5 mM MgCl2, and 0.1% BSA, pH 7.4. Nonspecific binding (10% of the total binding) was determined using 1 μM unlabeled OT and the binding reaction was terminated by filtration through glass fiber filters using a cell harvester (model 7019, Skatron, Inc., Sterling, Va.). IC50 (the concentration of tested compound that inhibits 50% of OT) was reported, unless otherwise noted.
IC50 values were determined for both [^3 H]OT and [^3 H]AVP binding assays by linear regression of the relation log concentration of compound vs. percent inhibition of specific binding.

The conditions of series [1]: cited from earlier work.

Where two headings read alike, the source gives them in different places.

For the compound `CCO` [Ethanol], in the series with premature labor, the “effectiveness in preventing premature labor (in words)” value is listed as “as effective as ritodrine in preventing premature labor” and the “reduction in the incidence of fetal respiratory distress (in words)” value is “does not produce a corresponding reduction in the incidence of fetal respiratory distress that administration of ritodrine does”.

As usually defined, the IC50 is the concentration at which inhibition is half-maximal. Low values mean higher potency, high ones lower potency. `O=C(Cc1ccc2c(c1)OCO2)N1CCC2(C=Cc3ccccc32)CC1` [Example 10] had an IC50 on uterine OT receptors of 3700 nM.

With `O=C(Nc1ccc(CC(=O)N2CCC3(C=Cc4ccccc43)CC2)cc1)c1ccc2[nH]cnc2c1` [Example 12], the IC50 at uterine OT receptors came out at 150 nM.

The compound `O=C(CCc1c[nH]cn1)Nc1ccc(CC(=O)N2CCC3(CCc4ccccc43)CC2)cc1` [Example 14] displayed an IC50 on uterine OT receptors of 170 nM.

`O=C(Nc1ccc(CC(=O)N2CCC3(C=Cc4ccccc43)CC2)cc1)c1ccc2[nH]ccc2c1` [Example 15] showed an IC50 on uterine OT receptors of 310 nM.

Regarding `O=C(Nc1ccc(CC(=O)N2CCC3(C=Cc4ccccc43)CC2)cc1)c1ccc2[nH]nnc2c1` [Example 16], the IC50 on uterine OT receptors is 520 nM. This IC50 lies about 1.7-fold higher than the previous one.

As to `O=S(=O)([O-])[O-].[Mg+2]` [Magnesium sulfate], the “toxicity at plasma concentrations above the therapeutic range (in words)” value in series [1] (above 4 to 8 mg/dL plasma) was “can cause inhibition of cardiac conduction and neuromuscular transmission, respiratory depression and cardiac arrest”. The “therapeutic range of plasma concentrations” value in series [1] (plasma) is given as 4 to 8 mg/dL.

For the compound `CC(NCCc1ccc(O)cc1)C(O)c1ccc(O)cc1` (stereo not drawn) [Ritodrine], the “side effects (in words)” value in series [1] (tocolytic use, in the mother) is “causes a number of cardiovascular and metabolic side effects in the mother, including tachycardia, increased renin secretion, hyperglycemia (and reactive hypoglycemia in the infant)”.

Regarding `CC(C)(C)NCC(O)c1ccc(O)c(CO)c1` (stereo not drawn) [albuterol], the “side effects (in words)” value in series [1] (in vivo) was “side effects similar to those of ritodrine”.

Take `CC(C)(C)NCC(O)c1cc(O)cc(O)c1` (stereo not drawn) [terbutaline]: the “side effects (in words)” value in series [1] (tocolytic use, in the mother) was “side effects similar to those of ritodrine”.
